{
  "source": "patent EP2687213B1",
  "about": "“Solid forms comprising (+)-2-[1-(3-ethoxy-4-methoxyphenyl)-2-methylsulfonylethyl]-4-acetylaminoisoindoline-1,3-dione, compositions thereof, and uses thereof” (CELGENE CORPORATION, priority 2008, dated 2009)",
  "key": {"[1]": {"target": "T1, PDE6 from bovine retinal rod outer segments (Bos taurus, UniProt P11541+P23439)", "T1 construct": "PDE6 from bovine retinal rod outer segments; from tissue; host or cells: bovine retinal rod outer segments", "T1 sequence (P11541 2-856 limits assumed)": "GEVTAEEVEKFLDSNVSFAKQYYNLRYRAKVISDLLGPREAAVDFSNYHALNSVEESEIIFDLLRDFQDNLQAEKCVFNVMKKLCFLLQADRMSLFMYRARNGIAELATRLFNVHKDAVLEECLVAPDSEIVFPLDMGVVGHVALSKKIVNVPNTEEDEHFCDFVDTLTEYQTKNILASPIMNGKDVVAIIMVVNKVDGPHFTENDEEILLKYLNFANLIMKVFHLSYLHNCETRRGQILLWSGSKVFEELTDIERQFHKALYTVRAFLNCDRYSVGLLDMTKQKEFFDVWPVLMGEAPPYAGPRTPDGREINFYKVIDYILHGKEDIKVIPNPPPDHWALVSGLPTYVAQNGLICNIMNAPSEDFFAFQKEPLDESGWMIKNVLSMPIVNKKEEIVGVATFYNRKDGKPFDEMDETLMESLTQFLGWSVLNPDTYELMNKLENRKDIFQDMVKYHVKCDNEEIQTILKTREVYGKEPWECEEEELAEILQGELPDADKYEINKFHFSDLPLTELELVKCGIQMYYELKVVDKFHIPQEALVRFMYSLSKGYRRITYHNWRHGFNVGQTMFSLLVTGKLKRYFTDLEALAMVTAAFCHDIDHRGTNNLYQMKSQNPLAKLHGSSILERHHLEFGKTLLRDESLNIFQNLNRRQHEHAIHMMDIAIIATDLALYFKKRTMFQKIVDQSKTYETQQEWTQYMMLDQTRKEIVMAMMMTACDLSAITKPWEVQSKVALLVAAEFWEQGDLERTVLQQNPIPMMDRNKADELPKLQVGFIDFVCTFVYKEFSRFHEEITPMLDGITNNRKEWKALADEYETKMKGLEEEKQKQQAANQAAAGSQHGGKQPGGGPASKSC", "T1 sequence (P23439 2-850 limits assumed)": "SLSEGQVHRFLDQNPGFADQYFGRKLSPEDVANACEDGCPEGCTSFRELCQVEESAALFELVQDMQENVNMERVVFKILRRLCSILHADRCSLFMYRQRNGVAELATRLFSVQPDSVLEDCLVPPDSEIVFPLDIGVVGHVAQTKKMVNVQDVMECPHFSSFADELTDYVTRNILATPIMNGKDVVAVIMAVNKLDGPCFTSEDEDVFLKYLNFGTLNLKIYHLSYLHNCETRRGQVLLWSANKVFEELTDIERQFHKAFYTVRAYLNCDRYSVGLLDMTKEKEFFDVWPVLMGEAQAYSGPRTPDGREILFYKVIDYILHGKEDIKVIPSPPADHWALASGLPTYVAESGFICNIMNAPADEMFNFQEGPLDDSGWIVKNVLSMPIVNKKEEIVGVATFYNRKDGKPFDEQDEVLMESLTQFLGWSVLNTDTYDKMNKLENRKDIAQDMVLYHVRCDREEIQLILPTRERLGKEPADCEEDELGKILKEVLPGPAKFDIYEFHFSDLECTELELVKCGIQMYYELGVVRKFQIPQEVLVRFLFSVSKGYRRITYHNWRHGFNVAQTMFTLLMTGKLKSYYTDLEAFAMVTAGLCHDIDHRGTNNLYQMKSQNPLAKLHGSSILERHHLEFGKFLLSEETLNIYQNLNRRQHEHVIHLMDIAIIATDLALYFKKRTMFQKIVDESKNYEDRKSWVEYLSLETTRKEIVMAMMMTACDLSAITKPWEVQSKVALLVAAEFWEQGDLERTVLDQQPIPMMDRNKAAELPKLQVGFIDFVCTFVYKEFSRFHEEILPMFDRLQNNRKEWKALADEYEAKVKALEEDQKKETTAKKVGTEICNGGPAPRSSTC", "test": "PDE6 enzyme assay", "assay_type": "biochemical", "conditions": "from PDE inhibition data of Table 1"}, "[2]": {"test": "Equilibrium aqueous solubility in pH 7.4 buffer", "assay_type": "physicochemical", "experimental": "Equilibrium solubilities were measured in pH 7.4 aqueous buffer. The pH 7.4 buffer was prepared by adjusting the pH of a 0.07 M NaH2PO4 solution to 7.4 with 10 N NaOH. The ionic strength of the solution was 0.15. At least 1 mg of powder was combined with 1 ml of buffer to make >1 mg/ml mixture. These samples were shaken for >2 hours and left to stand overnight at room temperature. The samples were then filtered through a 0.45-µm Nylon syringe filter that was first saturated with the sample. The filtrate was sampled twice, consecutively. The filtrate was assayed by HPLC against standards prepared in 50% methanol."}},
  "data": [
    {"smiles": "CCOc1cc(C(CS(C)(=O)=O)N2C(=O)c3cccc(NC(C)=O)c3C2=O)ccc1OC", "note": "(single isomer, unassigned; (+)) [Compound A, (+)-2-[1-(3-ethoxy-4-methoxyphenyl)-2-methylsulfonylethyl]-4-acetylaminoisoindoline-1,3-dione]", "values": [
      {"measurement": "PDE Specificity Ratio PDE4/PDE6", "setting": "[1]", "value": ">40000", "unit": "fold"},
      {"measurement": "aqueous solubility greater than the racemic mixture", "setting": "[2]", "value": 3.5, "unit": "fold"}
    ]}
  ]
}
